Measurements: ChEMBL document CHEMBL5726104, “4,6-disubstituted aminopyrimidine derivatives have anti-HIV activity” (2017)

target: Cyclin-dependent kinase 9 (Homo sapiens, UniProt P50750); assay: Fluorescent Polarization Assay: The activity of the compounds described in the present invention can be determined by measuring the phosphorylation of a fluorescently-labeled peptide by human CDK9/CyclinT kinase complex by fluorescent polarization using a commercially available IMAP Screening Express Assay Kit (Molecular devices).Test compounds were diluted in 100% DMSO to 5 mM stock concentration, then further dilutions were made in H2O or 100% DMSO to desirable concentrations. Each reaction consisted of 5 nM enzyme: CDK9/CyclinT (Proqinase cat#0371-0345-1), 400 nM TAMRA-Rbtide (synthetic 15-mer peptide derived from human retinoblastoma tumor suppressor protein labeled with TAMRA dye, Genecust Europe), 12 μM ATP (=Kmapp, Sigma-Aldrich) and kinase buffer: 20 mM MOPS pH 7 (Sigma-Aldrich), 1 mM DTT (Sigma-Aldrich), 10 mM MgCl2 (Sigma-Aldrich), 0.01% Tween 20 (Sigma-Aldrich).For each reaction, 4 or 6 μl containing TAMRA-Rbtide, ATP and kianse buffer were combined with 2 μl diluted compound in H2O or 0.028 μl compound in 100% DMSO. The kinase reaction was started by the addition of 2 μl diluted enzyme.
Sequence (P50750 whole entry): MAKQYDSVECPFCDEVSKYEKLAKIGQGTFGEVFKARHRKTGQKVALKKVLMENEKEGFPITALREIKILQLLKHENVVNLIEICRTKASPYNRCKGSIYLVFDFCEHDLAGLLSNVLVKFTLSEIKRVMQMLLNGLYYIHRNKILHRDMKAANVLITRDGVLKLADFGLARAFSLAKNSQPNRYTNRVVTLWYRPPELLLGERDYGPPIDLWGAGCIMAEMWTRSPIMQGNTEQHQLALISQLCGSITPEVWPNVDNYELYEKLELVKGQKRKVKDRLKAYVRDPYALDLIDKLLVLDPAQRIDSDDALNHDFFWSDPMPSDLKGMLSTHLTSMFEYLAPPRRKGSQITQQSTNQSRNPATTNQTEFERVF

Row | SMILES | IC50 [µM]
1 | COc1ccc(Nc2cc(-c3ccccc3OC)ncn2)cc1NS(C)(=O)=O | < 0.1
2 | COc1cccc(-c2cc(Nc3ccc(OC)c([N+](=O)[O-])c3)ncn2)c1 | > 10
3 | COc1ccccc1-c1cc(Nc2ccc(N3CCN(C)CC3)c(CO)c2)ncn1 | < 0.1
4 | COc1ccc(Nc2cc(-c3ccccc3OCc3ccccc3)ncn2)cc1[N+](=O)[O-] | < 10
